These results are taken from ChEMBL document CHEMBL1151685, “Structure-activity relationship of antibacterial chalcones” (2008).

Common to all, as to format: functional
One test relates to Bacillus cereus. Kind of test: Antibacterial activity against Bacillus cereus ATCC 11778 after 24 hrs by microdilution broth method. The note with it: ATCC 11778, 24 h.
The next test relates to Escherichia coli. Kind of test: Antibacterial activity against Escherichia coli ATCC 25922 after 24 hrs by microdilution broth method. The conditions noted are these: ATCC 25922, 24 h.
The test system of the next test is Pseudomonas aeruginosa. Kind of test: Antibacterial activity against Pseudomonas aeruginosa ATCC 27853 after 24 hrs by microdilution broth method. The conditions noted are these: ATCC 27853, 24 h.
A further test deals with Staphylococcus aureus. Kind of test: Antibacterial activity against Staphylococcus aureus ATCC 25923 after 24 hrs by microdilution broth method. The note with it: ATCC 25923, 24 h.

≈ marks a conversion by molar mass, not a printed value.

Consider `CC1(C)C=Cc2cc(C(=O)/C=C/c3ccccc3)c(O)cc2O1` [ISOLONCHOCARPIN], for which the MBC in the test with Bacillus cereus, with Escherichia coli, in the test with Pseudomonas aeruginosa and in the test with Staphylococcus aureus was greater than 2000 µg/mL throughout. The minimal inhibitory concentration (MIC) amounted to 1000 µg/mL (≈ 3.26 mM) against Bacillus cereus, 2000 µg/mL (≈ 6.53 mM) in the test with Escherichia coli, 2000 µg/mL (≈ 6.53 mM) against Pseudomonas aeruginosa and 2000 µg/mL (≈ 6.53 mM) in the test with Staphylococcus aureus.

Turning to `CC1(C)C=Cc2c(ccc(C(=O)/C=C/c3ccccc3)c2O)O1` [LONCHOCARPIN], the MBC in the test with Bacillus cereus was 2000 µg/mL (≈ 6.53 mM); in the test with Escherichia coli it was 1000 µg/mL (≈ 3.26 mM); against Pseudomonas aeruginosa, 2000 µg/mL (≈ 6.53 mM); against Staphylococcus aureus, 2000 µg/mL (≈ 6.53 mM). Further, the MIC against Bacillus cereus came to 2000 µg/mL (≈ 6.53 mM); against Escherichia coli it was 1000 µg/mL (≈ 3.26 mM); in the test on Pseudomonas aeruginosa, 2000 µg/mL (≈ 6.53 mM); against Staphylococcus aureus, 2000 µg/mL (≈ 6.53 mM).

For `O=C(CCc1ccc(O)cc1)c1c(O)cc(O)cc1O` [PHLORETIN], the minimum bactericidal concentration (MBC) in the test with Bacillus cereus stood at 250 µg/mL (≈ 0.912 mM); with Escherichia coli, 1000 µg/mL (≈ 3.65 mM); in the test on Pseudomonas aeruginosa, 2000 µg/mL (≈ 7.29 mM); with Staphylococcus aureus, 250 µg/mL (≈ 0.912 mM). The MIC is 250 µg/mL (≈ 0.912 mM) in the test with Bacillus cereus, greater than 2000 µg/mL against Escherichia coli, 2000 µg/mL (≈ 7.29 mM) with Pseudomonas aeruginosa and 250 µg/mL (≈ 0.912 mM) against Staphylococcus aureus.

As for `CN(C)[C@@H]1C(O)=C(C(N)=O)C(=O)[C@@]2(O)C(O)=C3C(=O)c4c(O)cccc4[C@@](C)(O)[C@H]3C[C@@H]12` [TETRACYCLINE], the MIC in the test with Bacillus cereus came out at 0.25 µg/mL (≈ 0.000563 mM); against Escherichia coli, 2 µg/mL (≈ 0.0045 mM); in the test with Pseudomonas aeruginosa, 32 µg/mL (≈ 0.072 mM); against Staphylococcus aureus it was 1 µg/mL (≈ 0.00225 mM).
